In article PMC9785280, “Synthesis, Antiproliferative Evaluation and QSAR Analysis of Novel Halogen- and Amidino-Substituted Benzothiazoles and Benzimidazoles” (International Journal of Molecular Sciences, 2022):

Legend:
[1] = tested on: HeLa (cervical adenocarcinoma) cells; test: MTT antiproliferative assay, HeLa; assay type: cell-based; details: Homo sapiens, 72 h, mean ± SD of three independent experiments
Method: (§1) The growth inhibition activity was assessed according to the slightly modified procedure performed at the National Cancer Institute, Developmental Therapeutics Program.
(§2) Examined compounds were dissolved in DMSO (1 × 10^−2 M). The experiments were carried out on seven human tumor cell lines and two normal cell lines. The following cell lines were used: HeLa (human cervical adenocarcinoma; purchased from ATCC), CaCo-2 (human colorectal adenocarcinoma), HuT78 (T-cell lymphoma), THP-1 (acute monocytic leukemia), SW620 (colorectal adenocarcinoma, metastatic), MDA-MB-231 (human breast adenocarcinoma), HL60 (promyelocytic leukemia cell line), foreskin fibroblast cells (BJ) and MDCK1 (Madine–Darby canine kidney fibroblast like cells). MDCK1 cells were used between 24 and 26 passages.
(§3) Adherent cells were cultured in the Dulbecco’s modified Eagle medium—DMEM (Gibco, EU) supplemented with 10 % heat-inactivated fetal bovine serum (FBS, Gibco, EU), 2 mM glutamine, and 100 U/0.1 mg penicillin/streptomycin. Cells on suspension were cultured in RPMI 1640 (Gibco, EU) medium supplemented with 10 % FBS (Gibco, EU), 2 mM glutamine, 1 mM sodium pyruvate, 10 mM HEPES. Cells were grown in humidified atmosphere under the conditions of 37 °C/5% of CO2 gas in the CO2 incubator (IGO 150 CELLlife^TM, JOUAN, Thermo Fisher Scientific, Waltham, MA, USA). A erythrosin B (Sigma-Aldrich, St. Louis, MO, USA) dye exclusion method was used to assess cell viability before plating.
(§4) Adherent cells (HeLa, CaCo-2, MCF-7 and MDCK-1) were plated in 96-well flat bottom plates (Greiner, Frickenhausen, Austria) at a concentration of 2 × 10^4 cells/mL. Suspension cells (THP-1 and HuT78) were plated in 96-well microtiter plates (Sarstead, Newton, USA) at a concentration of 1 × 10^5 cells/mL. Twenty-four hours later, cells were treated with test agents in […] 10-fold dilutions ([…] to 10^−4 M) and incubated for further 72 h. Working dilutions were freshly prepared on the day of testing. The solvent was also tested for eventual inhibitory activity by adjusting its concentration to be the same as in working concentrations. After 72 h of incubation, the cell growth rate was evaluated by performing the MTT assay, which detects dehydrogenase activity in viable cells. For this purpose, upon completion of the incubation period, growth medium was discarded and 50 μL of MTT was added to each well at a concentration of 5 mg/mL. After four hours of incubation at 37 °C, water insoluble MTT-formazan crystals were dissolved in 150 μL of dimethyl-sulfoxide (DMSO) for adherent cells, and in 10 % SDS with 0.01 M/L HCl for cells grown in suspension. The absorbance (OD, optical density) was measured on a microplate reader (iMark, BIO RAD, Hercules, CA, USA) at 595 nm.
(§5) Percent of life cells was calculated as follows: % = OD (sample)–OD (background)/OD (control)–OD (background) × 100.
(§6) Optical density (OD) of background for adherent cells is the OD of MTT solution and DMSO; OD (background) for suspension cells is OD of the culture medium with MTT and 10% SDS with 0.01 M/L HCl; OD (control) is the OD of the cells growth without tested compounds.
(§7) Calculation of GI50 value curves and QC analysis is performed by using the Excel tools and GraphPadPrism software (La Jolla, CA), v. 5.03. Briefly, individual concentration effect curves are generated by plotting the logarithm of the concentration of tested compounds(X) vs. corresponding percent inhibition values (Y) using least squares fit. The best fit GI50 values are calculated using Log (inhibitor) versus normalized response—Variable slope equation, where Y Ľ 100/(1 ţ 10 ((LogIC50 _ X) * HillSlope)). QC criteria parameters (Z0, S:B, R2, HillSlope) were checked for every GI50 curve.

[2] = tested on: MDCK1 (Madin–Darby canine kidney) cells; test: MTT antiproliferative assay, non-tumor MDCK1 cells; assay type: cell-based; details: Canis lupus familiaris, MDCK1, 72 h, mean ± SD of three independent experiments, normal cells
Method: as §1, §2, §3, §4, §5, §6, §7

[3] = tested on: HuT78 (T-cell lymphoma) cells; test: MTT antiproliferative assay, HuT78; assay type: cell-based, human; details: for IC50: Homo sapiens, HuT78, 72 h, 72 h, MTT, mean ± SD of three independent experiments; for SI (BJ) HuT78: SI = IC50 BJ / IC50 HuT78; for SI (MDCK) HuT78: SI = IC50 MDCK1 / IC50 HuT78
Method: as §1, §2, §3, §4, §5, §6, §7

[4] = tested on: human fibroblasts (BJ); test: MTT antiproliferative assay, normal BJ fibroblasts; assay type: cell-based; details: Homo sapiens, Fibroblast, 72 h, MTT, mean ± SD of three independent experiments; normal cells
Method: as §1, §2, §3, §4, §5, §6, §7

[5] = tested on: CaCo-2 (colon adenocarcinoma) cells; test: MTT antiproliferative assay, CaCo-2; assay type: cell-based, human; details: Homo sapiens, Caco-2; 72 h, MTT, mean ± SD of three independent experiments
Method: as §1, §2, §3, §4, §5, §6
as §7, with “The best fit GI50 values are calculated using Log (inhibitor) versus normalized response—Variable slope equation, where Y Ľ 100/(1 ţ 10 ((LogIC50 _ X) * HillSlope)).” left out

SMILES	IC50 [1]	melting point	IC50 [2]	IC50 [3]	SI (BJ) HuT78 [3]	SI (MDCK) HuT78 [3]	IC50 [4]	IC50 [5]
Fc1cc(-c2nc3ccccc3s2)ccc1OCc1c[nH]nn1 [23b, 2-(3-Fluoro-4-((1H-1,2,3-triazol-4-yl)methoxy)phenyl)benzothiazole]	34.9 ± 14.8 µM	185 to 189 °C	27.4 ± 4.2 µM	17.1 ± 7.7 µM	2.34	1.6	40.5 ± 17.2 µM	56 ± 14.6 µM
COc1cc(-c2nc3ccccc3s2)ccc1OCc1c[nH]nn1 [23c, 2-(3-Methoxy-4-((1H-1,2,3-triazol-4-yl)methoxy)phenyl)benzothiazole]	45.7 ± 16.3 µM	177 to 180 °C	29.5 ± 7.2 µM	20 ± 8.7 µM	5.0	–	> 100 µM	96.4 ± 13.3 µM
Clc1ccc2nc(-c3ccc(OCc4cn(Cc5ccccc5)nn4)cc3)sc2c1 [24a, 6-Chloro-2-(4-((1-benzyl-1H-1,2,3-triazol-4-yl)methoxy)phenyl)benzothiazole]	> 100 µM	201 to 205 °C	11.4 ± 14.5 µM	> 100 µM	–	–	> 100 µM	> 100 µM
Fc1cc(-c2nc3ccc(Cl)cc3s2)ccc1OCc1cn(Cc2ccccc2)nn1 [24b, 6-Chloro-2-(3-fluoro-4-((1-benzyl-1H-1,2,3-triazol-4-yl)methoxy)phenyl)benzothiazole]	> 100 µM	181 to 186 °C	8.8 ± 8.3 µM	> 100 µM	–	–	> 100 µM	> 100 µM
COc1cc(-c2nc3ccc(Cl)cc3s2)ccc1OCc1cn(Cc2ccccc2)nn1 [24c, 6-Chloro-2-(3-methoxy-4-((1-benzyl-1H-1,2,3-triazol-4-yl)methoxy)phenyl)benzothiazole]	82.8 ± 32.3 µM	190 to 193 °C	41.1 ± 17.2 µM	49.6 ± 38 µM	2.0	–	> 100 µM	> 100 µM
Fc1ccc2nc(-c3ccc(OCc4cn(Cc5ccccc5)nn4)cc3)sc2c1 [25a, 6-Fluoro-2-(4-((1-benzyl-1H-1,2,3-triazol-4-yl)methoxy)phenyl)benzothiazole]	> 100 µM	176 to 180 °C	8.2 ± 5.8 µM	> 100 µM	–	–	10 ± 0.01 µM	> 100 µM
Fc1ccc2nc(-c3ccc(OCc4cn(Cc5ccccc5)nn4)c(F)c3)sc2c1 [25b, 6-Fluoro-2-(3-fluoro-4-((1-benzyl-1H-1,2,3-triazol-4-yl)methoxy)phenyl)benzothiazole]	> 100 µM	205 to 208 °C	51.3 ± 4.6 µM	19.7 ± 10.6 µM	5.07	2.6	> 100 µM	> 100 µM
COc1cc(-c2nc3ccc(F)cc3s2)ccc1OCc1cn(Cc2ccccc2)nn1 [25c, 6-Fluoro-2-(3-methoxy-4-((1-benzyl-1H-1,2,3-triazol-4-yl)methoxy)phenyl)benzothiazole]	> 100 µM	180 to 183 °C	22.8 ± 4.9 µM	> 100 µM	–	–	> 100 µM	77.6 ± 43.3 µM
c1ccc(Cn2cc(COc3ccc(-c4nc5ccccc5s4)cc3)nn2)cc1 [26a, 2-(4-((1-Benzyl-1H-1,2,3-triazol-4-yl)methoxy)phenyl)benzothiazole]	> 100 µM	210 to 214 °C	36.7 ± 18 µM	> 100 µM	–	–	> 100 µM	> 100 µM
Fc1cc(-c2nc3ccccc3s2)ccc1OCc1cn(Cc2ccccc2)nn1 [26b, 2-(3-Fluoro-4-((1-benzyl-1H-1,2,3-triazol-4-yl)methoxy)phenyl)benzothiazole]	> 100 µM	198 to 201 °C	64.8 ± 38.5 µM	> 100 µM	–	–	> 100 µM	> 100 µM
COc1cc(-c2nc3ccccc3s2)ccc1OCc1cn(Cc2ccccc2)nn1 [26c, 2-(3-Methoxy-4-((1-benzyl-1H-1,2,3-triazol-4-yl)methoxy)phenyl)benzothiazole]	23.3 ± 15.3 µM	170 to 173 °C	8.5 ± 6.4 µM	23.7 ± 5.2 µM	3.24	–	76.7 ± 27.7 µM	> 100 µM
Cl.O=C(COc1ccc(-c2nc3ccc(C4=NCCN4)cc3s2)cc1)c1ccccc1 [34a, 2-(4-(2-Oxo-2-phenylethoxy)phenyl)-6-(4,5-dihydro-1H-imidazol-2-yl)benzothiazole hydrochloride]	3.4 ± 0.2 µM	> 250 °C	2.8 ± 0.3 µM	2.2 ± 0.3 µM	–	–	3.9 ± 0.3 µM	4 ± 0.2 µM
Cl.O=C(COc1ccc(-c2nc3ccc(C4=NCCN4)cc3s2)cc1F)c1ccccc1 [34b, 2-(3-Fluoro-4-(2-oxo-2-phenylethoxy)phenyl)-6-(4,5-dihydro-1H-imidazol-2-yl)benzothiazole hydrochloride]	4.5 ± 4.3 µM	> 240 °C	2.2 ± 0.3 µM	2.1 ± 0.2 µM	–	–	11.2 ± 6 µM	7 ± 5.4 µM
COc1cc(-c2nc3ccc(C4=NCCN4)cc3s2)ccc1OCC(=O)c1ccccc1.Cl [34c, 2-(3-Methoxy-4-(2-oxo-2-phenylethoxy)phenyl)-6-(4,5-dihydro-1H-imidazol-2-yl)benzothiazole hydrochloride]	3.1 ± 0.2 µM	> 240 °C	2.1 ± 0.3 µM	1.8 ± 0.7 µM	–	–	4 ± 0.1 µM	6.3 ± 3 µM
Cl.c1ccc(COc2ccc(-c3nc4ccc(C5=NCCN5)cc4s3)cc2)nc1 [35a, 2-(4-(Pyridin-2-ylmethoxy)phenyl)-6-(4,5-dihydro-1H-imidazol-2-yl)benzothiazole hydrochloride]	18.9 ± 3.6 µM	> 250 °C	2.7 ± 0.3 µM	1.4 ± 0.2 µM	–	–	3.2 ± 0.3 µM	26.7 ± 2.1 µM
COc1cc(-c2nc3ccc(C4=NCCN4)cc3s2)ccc1OCc1ccccn1.Cl [35c, 2-(3-Methoxy-4-(pyridin-2-ylmethoxy)phenyl)-6-(4,5-dihydro-1H-imidazol-2-yl)benzothiazole hydrochloride]	21.8 ± 5.5 µM	219 to 223 °C	7.5 ± 3.5 µM	6.2 ± 2.7 µM	–	–	6.7 ± 4.9 µM	18.2 ± 3.3 µM
Cl.Fc1cc(-c2nc3ccc(C4=NCCN4)cc3s2)ccc1OCc1c[nH]nn1 [36b, 2-(3-Fluoro-4-((1H-1,2,3-triazol-4-yl)methoxy)phenyl)-6-(4,5-dihydro-1H-imidazol-2-yl)benzothiazole hydrochloride]	30 ± 1 µM	234 to 237 °C	25.2 ± 1.3 µM	1.8 ± 0.4 µM	–	14	32.6 ± 3.4 µM	38.3 ± 1.2 µM
